In publication PMC11876601 (Molecular Systems Biology, 2025):
Where two headings read alike, the source gives them in different places.

Key:
13 PDAC cell lines = experiment: Phenotypic drug combination viability screen (ATPlite, 72 h), cell line panel; assay type: cell-based, human; conditions: of 13 cell lines; Bliss model
[1] = system: p-sites in DNA-damaged AsPC-1 cells; experiment: decryptM dose-resolved phosphoproteomics of ATRi in GEM-pre-treated cells; assay type: cell-based, human; conditions: for EC50: Homo sapiens, ASPC1; for PTM response (norm. to 1 µM GEM): source data 4B (p-site not named)
Experimental: Cell culture medium was replaced 24 h after seeding. […] For time point 0, AsPC-1 cells were treated with a vehicle and lysed immediately. The final DMSO concentration in all experiments was 0.2%.
Briefly, cells were washed twice with PBS and lysed in SDS lysis buffer (2% SDS in 40 mM Tris-HCl, pH 7.6), followed by sonication for 10 min (30 s on/30 s off) using a Bioruptor (Diagenode). For DNA hydrolysis, samples were boiled at 95 °C for 10 min and incubated with 2% trifluoroacetic acid (TFA) for 1 min, before the reaction was quenched using 4% N-methylmorpholine. Lysate was cleared by centrifugation at 11,000 × g for 5 min and protein concentration was determined using the Pierce BCA Protein Assay Kit (Thermo Scientific).
Using 70% ethanol, samples were then precipitated on beads, followed by washing thrice with 80% ethanol and once with 100% acetonitrile. Subsequently, proteins were reduced and alkylated using 10 mM TCEP, 50 mM chloroacetamide, and 2 mM CaCl2 in 100 mM EPPS/NaOH, pH 8.5 for 1 h at 37 °C, followed by tryptic digestion at 37 °C for 16 h. Peptides were acidified with 1% TFA and desalted on Chromabond HLB plates (30 µm particle size, 10 mg capacity, Machery-Nagel), using 0.1% TFA for equilibration and sample loading, and 0.1% TFA in 70% acetonitrile for peptide elution. Recovered peptides were freeze-dried by vacuum-centrifugation and stored at −20 °C.
Depending on the experiment, samples were either labeled with TMT-11plex (decryptM), TMT-10plex (non-decryptM, quadruplicates), or TMTpro reagent (time-series; all Thermo Scientific). Therefore, dried peptides were reconstituted in 15 µl 100 mM EPPS, pH 8.5 and each treatment condition was labeled with one channel of the respective TMT reagent (5 µl of 25 µg/µl reagent, Appendix Tables S4–S6). The reaction was incubated for 1 h at 23 °C and subsequently quenched with 0.4% hydroxylamine. Then, samples were pooled, acidified with 1% formic acid, and freeze-dried by vacuum-centrifugation. Labeled peptide pools were desalted on C18 Sep-Pak cartridges (37–55 µm particle size, 50 mg capacity, Waters), using 0.1% formic acid as equilibration solvent, and 0.1% formic acid in 60% acetonitrile was used as elution solvent. Eluted peptides were freeze-dried and stored at −20 °C until further use.
Basic reversed-phase (bRP) fractionation of peptides was performed on a Vanquish HPLC (Thermo Scientific). In short, dried peptides were reconstituted in 200 µl 25 mM ammonium bicarbonate, pH 8.0 and directly injected onto a Waters BEH130 XBridge C18 column (3.5 µm, 4.6 × 250 mm). […] Using an automated fraction collector, 96 fractions were collected between min 7 and 55 after injection. Fractions were acidified with 1% formic acid and pooled to 48 fractions, before they were freeze-dried and stored at −20 °C.
Immobilized metal ion affinity chromatography (IMAC) enrichment of phosphorylated peptides was performed on the Bravo automated liquid handling platform using AssayMAP Fe(III)-NTA cartridges (Agilent). In brief, the 48 dried peptide fractions were reconstituted in 0.1% TFA in 80% acetonitrile and further pooled to 12 fractions (200 µl final volume per well). The phosphopeptide enrichment protocol embedded in the Agilent AssayMAP Bravo Protein Sample Prep Workbench v2.0 software was run. Thereby, the cartridges were first primed with 150 μl 0.1% TFA in acetonitrile at 300 μl/min, and equilibrated with 150 μl 0.1% TFA in 80% acetonitrile at 10 μl/min. Then, pooled fractions were loaded at 5 µl/min and further washed three times with 150 μl 0.1% TFA in 80% acetonitrile at 50 μl/min. Enriched peptides were eluted with 60 μl 1% ammonium hydroxide at 5 μl/min.

## C[C@]12O[C@H](C[C@]1(O)CO)n1c3ccccc3c3c4c(c5c6ccccc6n2c5c31)CNC4=O [Lestaurtinib]
13 PDAC cell lines
  number of cell lines with synergy with GEM: 5 cell lines

## Nc1nn2cc(F)cnc2c1C(=O)Nc1cncc(F)c1N1CCC(C(=O)N2CCN(C3COC3)CC2)CC1 [Gartisertib]
[1]; 1,000 nM GEM + 1 nM ATRi
  Ratio TMT 9 (PTM response normalized to 1,000 nM GEM), AAAS S495: 1.01
[1]; 1,000 nM GEM + 3 nM ATRi
  Ratio TMT 8 (PTM response normalized to 1,000 nM GEM), AAAS S495: 1.19
[1]; 1,000 nM GEM + 10 nM ATRi
  Ratio TMT 7 (PTM response normalized to 1,000 nM GEM), AAAS S495: 1.10
[1]; 1,000 nM GEM + 30 nM ATRi
  Ratio TMT 6 (PTM response normalized to 1,000 nM GEM), AAAS S495: 1.01
[1]; 1,000 nM GEM + 100 nM ATRi
  Ratio TMT 5 (PTM response normalized to 1,000 nM GEM), AAAS S495: 0.97
[1]; 1,000 nM GEM + 300 nM ATRi
  Ratio TMT 4 (PTM response normalized to 1,000 nM GEM), AAAS S495: 1.12
[1]; 1,000 nM GEM + 1,000 nM ATRi
  Ratio TMT 3 (PTM response normalized to 1,000 nM GEM), AAAS S495: 1.11
[1]; 1,000 nM GEM + 3,000 nM ATRi
  Ratio TMT 2 (PTM response normalized to 1,000 nM GEM), AAAS S495: 1.00
[1]; 1,000 nM GEM + 10,000 nM ATRi
  Ratio TMT 1 (PTM response normalized to 1,000 nM GEM), AAAS S495: 1.09
[1]; AASDHPPT-pS258
  Log2 PTM response (GEM+ATRi vs. GEM): -1.6
[1]; BRCA1-pS1239
  Log2 PTM response (GEM+ATRi vs. GEM): -2
[1]; BRD8-pS621
  Log2 PTM response (GEM+ATRi vs. GEM): -1.6
[1]; CDKN2AIP-pS198
  Log2 PTM response (GEM+ATRi vs. GEM): -1.3
[1]; CHEK1-pS317
  Log2 PTM response (GEM+ATRi vs. GEM): -2.3
[1]; EXO1-pS714
  Log2 PTM response (GEM+ATRi vs. GEM): -1.9
[1]; FANCD2-pS319
  Log2 PTM response (GEM+ATRi vs. GEM): -1
[1]; HDGF-pS103
  Log2 PTM response (GEM+ATRi vs. GEM): -1.6
[1]; HMGA1-pS9
  Log2 PTM response (GEM+ATRi vs. GEM): -2
[1]; HMGA1-pS36;S44
  Log2 PTM response (GEM+ATRi vs. GEM): -0.9
[1]; HMGA1-pS44
  Log2 PTM response (GEM+ATRi vs. GEM): -2.1
[1]; HTATSF1-pS481
  Log2 PTM response (GEM+ATRi vs. GEM): -1.1
[1]; approximate, from density plot Fig. 4C (peer review file), read-out: EC50 of the majority of pSQ/pTQ sites
  EC50: ~10 nM
[1]; approximate, from density plot Fig. 4C (peer review file), read-out: pEC50 of the majority of pSQ/pTQ sites (converted)
  EC50: ~10 nM
[1]; p-site dose-response in GEM-pre-treated cells, read-out: EC50, RALY S176
  EC50: 1.91 nM
[1]; p-site dose-response in GEM-pre-treated cells, read-out: pEC50, RALY S176 (converted)
  EC50: 1.91 nM
[1]; read-out: median EC50 across all drug-regulated pSQ/pTQ-sites
  EC50: 21 nM
[1]; LRRC42-pS385
  Log2 PTM response (GEM+ATRi vs. GEM): -2.5
[1]; NBN-pS397
  Log2 PTM response (GEM+ATRi vs. GEM): -1.3
[1]; NBN-pS615
  Log2 PTM response (GEM+ATRi vs. GEM): -0.8
[1]; NSUN5-pS432
  Log2 PTM response (GEM+ATRi vs. GEM): -2.2
[1]; PELP1-pS1033
  Log2 PTM response (GEM+ATRi vs. GEM): -1
[1]; PHF14-pS294
  Log2 PTM response (GEM+ATRi vs. GEM): -1.2
[1]; PNISR-pS706
  Log2 PTM response (GEM+ATRi vs. GEM): -1.9
[1]; PPM1G-pS201
  Log2 PTM response (GEM+ATRi vs. GEM): -2.3
[1]; PPP6R3-pS825
  Log2 PTM response (GEM+ATRi vs. GEM): -1
[1]; PSMD4-pS266
  Log2 PTM response (GEM+ATRi vs. GEM): -1.2
[1]; RAD18-pS368
  Log2 PTM response (GEM+ATRi vs. GEM): -2.8
[1]; RIF1-pS1873
  Log2 PTM response (GEM+ATRi vs. GEM): -1.4
[1]; SNRPA-pS115
  Log2 PTM response (GEM+ATRi vs. GEM): -1
[1]; TCEA1-pS100;S97
  Log2 PTM response (GEM+ATRi vs. GEM): -2.6
[1]; TCEB3-pS251
  Log2 PTM response (GEM+ATRi vs. GEM): -1.6
[1]; THAP4-pS186
  Log2 PTM response (GEM+ATRi vs. GEM): -1.3
[1]; TOPBP1-pS1504
  Log2 PTM response (GEM+ATRi vs. GEM): -1.4
[1]; TSEN34-pS136
  Log2 PTM response (GEM+ATRi vs. GEM): -1.3
[1]; UHRF1-pS393
  Log2 PTM response (GEM+ATRi vs. GEM): -0.6
[1]; UIMC1-pS171
  Log2 PTM response (GEM+ATRi vs. GEM): -1
[1]; classified by CurveCurator
  ATRi Regulation (Curve), RALY S176: down
[1]; fitted dose-response curve
  Curve Log2 Fold Change, RALY S176: -1.45 log2
[1]; 1 µM GEM + ATRi 1 nM
  PTM response (norm. to 1 µM GEM): 1.13
[1]; 1 µM GEM + ATRi 3 nM
  PTM response (norm. to 1 µM GEM): 0.97
[1]; 1 µM GEM + ATRi 10 nM
  PTM response (norm. to 1 µM GEM): 0.75
[1]; 1 µM GEM + ATRi 30 nM
  PTM response (norm. to 1 µM GEM): 0.41
[1]; 1 µM GEM + ATRi 100 nM
  PTM response (norm. to 1 µM GEM): 0.29
[1]; 1 µM GEM + ATRi 300 nM
  PTM response (norm. to 1 µM GEM): 0.28
[1]; 1 µM GEM + ATRi 1000 nM
  PTM response (norm. to 1 µM GEM): 0.21
[1]; 1 µM GEM + ATRi 3000 nM
  PTM response (norm. to 1 µM GEM): 0.17
[1]; 1 µM GEM + ATRi 10000 nM
  PTM response (norm. to 1 µM GEM): 0.19
